Experimental data published in patent US6878388B1, “Vanadium compounds for treating proliferative cell disorders” (Parker Hughes Institute, priority 2000, dated 2005).

What was measured:
[1] = tested on: U118 human glioblastoma cells; assay: MTT cytotoxicity assay, U118; assay type: cell-based; conditions: 48 h incubation, 3 independent experiments, read-out: IC50 (mean ± SE)
Description: (§1) Human brain tumor cells lines U87 MG (Cat.# HTB-14), U118 MG (Cat. # HTB-15), U138 (Cat # HTB-16), U373 MG (CAT. # HTB-17), and T98G (Cat. # CRL-1690) and breast cancer cell lines BT-20 (Cat # HTB-19), MDA-MB-231 (Cat # HTB-26), MDA-MB-361 (Cat # HTB-27), and MCF-7 (Cat # HTB-22) were obtained from American Type Culture Collection (ATCC, Rockville, Md.) and maintained as continuous cell lines in Dulbecco's modified Eagles's medium (U87, U118, U138, U373, T98 and BT-20) or Leibovitz's L-15 medium (MDA-MB-231 and MDA-MB-361). All media were supplemented with 10% fetal calf serum (FCS), 4 mM glutamine, 100 U/ml penicillin G and […] streptomycin sulfate. All tissue culture reagents were obtained from Life Technologies Inc. (GIBCO-BRL, Gaithersburg, Md.).
(§2) The cytotoxicity of [VO(SO4)(Me2-Phen)2] against human cancer cell lines was analyzed using the MTT (3-[4,5-dimethylthiazol-2-yl]-2,5-diphenyl tetrazolium bromide) assay (Boehringer Mannheim Corp., Indianapolis, Ind.) as described previously (Narla et al., Clin Cancer Res., 4: 1405-1414, 1998). […] The absorbance at 540 nm (a reference wavelength of 690 nm was used) of the solution in each well was measured using a microplate reader (Labsystems). The percent survival and the IC50 values were calculated using Graphpad Prism v2.0 (Graphpad Software, Inc., San Diego, Calif.) as described previously (Narla et al., Supra). […]

[2] = tested on: BT-20 breast cancer cells; assay: MTT cytotoxicity assay, BT-20; assay type: cell-based, human; conditions: BT-20 cells, 48 h incubation, 3 independent experiments, read-out: IC50 (mean ± SE)
Description: as §1, §2

Structure (SMILES): Cc1ccnc2c1ccc1c(C)ccnc12.Cc1ccnc2c1ccc1c(C)ccnc12.O=S(=O)([O-])[O-].[O]=[V+2] [[VO(SO4)(Me2-Phen)2], bis(4,7-dimethyl-1,10-phenanthroline) sulfatooxovanadium (IV)]
- IC50 [1]: 820 ± 100 nM
- IC50 [2]: 1600 ± 700 nM
